Source: patent publication US20230217926A1, “SELECTIVE HERBICIDES BASED ON SUBSTITUTED ISOXAZOLIN CARBOXAMIDES AND ISOXADIFEN-ETHYL” (BAYER AKTIENGESELLSCHAFT, priority 2020, published 2023)

Columns and labels:
[1] = tested on: ZEAMA Sileno; assay: Safener seed treatment, pre-emergence herbicide, crop damage; format: in vivo, maize; parameters: key to Reduction [Difference]: % crop damage without safener minus % damage with safener; conditions: for Reduction [%] / Reduction [Difference]: isoxadifen-ethyl 0.25 g a.i./kg seed; for HER effect + SAF: isoxadifen-ethyl seed treatment 0.25 g a.i./kg seed; for HER effect: no safener
Protocol: For the safener seed treatment, sufficient seeds of the respective crops (spring wheat, TRZAS; spring barley, HORVS; maize, ZEAMA) were weighed into screw top glass bottles approximately twice the volume of the seeds.
The specified safeners, formulated as wettable powder (WP) were weighed out so that the specified rates (g a.i./kg seed) would be obtained, dissolved in water (1 ml water per 10 g of seeds), and added to the seeds to produce a slurry.
The bottles were capped and then placed in an overhead shaker (set at medium speed for ca. 60 minutes) so that the seeds were evenly coated with the slurry. The bottles were uncapped and the seeds were either placed on paper and dried for an interval of 3-4 hours prior to sowing, or directly sown. Seeds were placed in sandy loam soil in pots of a diameter of 7-8 cm, and covered with soil.
Pre-emergence application of the specified herbicides was done subsequently, on two sets of plants: a) seed treatment with safener, as described above
The herbicides were formulated as WP and was sprayed onto the soil surface as an aqueous suspension at an equivalent water application rate of 300 l/ha.
After application, the test plants were kept in the greenhouse under good growth conditions. At intervals up to 4 weeks after application (=28 days after treatment; DAT), % crop damage observed on the treated plants was scored visually in comparison to control plants that had not received any safener or herbicide treatment.
Values in the table below are mean values of at least 2 replicates.
Reduction[Difference]=herbicide damage without safener−herbicide damage with safener Reduction[%]=(Reduction[Difference]*100)/herbicide damage without safener […]
c) Plant Species, Variety: ZEAMA Sileno, Safener (SAF): Isoxadifen-Ethyl

[2] = tested on: ZEAMA Sileno; assay: Tank-mix post-emergence crop damage, greenhouse, visual assessment; format: in vivo, maize; parameters: key to Reduction [Difference]: % points: herbicide damage without safener − damage with safener; conditions: for HER effect + SAF / Reduction [%] / Reduction [Difference]: Final; for HER effect: no safener, Final assessment
Protocol: Seeds of crops (spring wheat, TRZAS; spring barley, HORVS; maize, ZEAMA) were placed in sandy loam soil in peat pots, covered with soil and cultivated in a greenhouse under good growth conditions. Two to three weeks after sowing, the test plants were treated at the 1 to 3-leaf stage. The herbicide/safener active compound combinations according to the invention, formulated as wettable powders or emulsion concentrates, and, in parallel tests, the correspondingly formulated individual active compounds were sprayed onto the green parts of the plants in various dosages using an amount of water of 300 l/ha (converted).
The pots were returned under good growing conditions in a glasshouse and a visual assessment of herbicidal effects was made at intervals from 1 to 3 weeks after herbicide application (DAT=days after treatment). Assessment was on a percentage basis in comparison with untreated control plants (0%=no injury, 100%=complete kill).
Reduction[Difference]=herbicide damage without safener−herbicide damage with safener Reduction[%]=(Reduction[Difference]*100)/herbicide damage without safener
a) Plant Species, Variety: ZEAMA Sileno, Safener (SAF): Isoxadifen-Ethyl

[3] = HER 40 g a.i./ha pre-emergence, 14 DAT
[4] = HER 40 g a.i./ha pre-emergence, 26 DAT
[5] = HER 8 g a.i./ha + isoxadifen-ethyl 50 g a.i./ha
[6] = HER 8 g a.i./ha, isoxadifen-ethyl 50 g a.i./ha
[7] = HER 32 g a.i./ha + isoxadifen-ethyl 100 g a.i./ha
[8] = HER 32 g a.i./ha, isoxadifen-ethyl 100 g a.i./ha
[9] = HER 80 g a.i./ha pre-emergence, 14 DAT
[10] = HER 80 g a.i./ha pre-emergence, 26 DAT
[11] = HER 2 g a.i./ha, isoxadifen-ethyl 50 g a.i./ha

Row | Compound | Reduction [%] [1, 3] [%] | Reduction [Difference] [1, 3] | Reduction [%] [1, 4] [%] | Reduction [Difference] [1, 4] | HER effect + SAF [1, 3] [%] | HER effect + SAF [1, 4] [%] | HER effect [1, 3] [%] | HER effect [1, 4] [%] | HER effect + SAF [2, 5] [%] | Reduction [%] [2, 6] [%] | Reduction [Difference] [2, 6] | HER effect ([2]; HER 8 g a.i./ha) [%] | HER effect + SAF [2, 7] [%] | Reduction [%] [2, 8] [%] | Reduction [Difference] [2, 8] | HER effect ([2]; HER 32 g a.i./ha) [%] | Reduction [%] [1, 9] [%] | Reduction [Difference] [1, 9] | HER effect + SAF [1, 9] [%] | HER effect [1, 9] [%] | other results
1 | COC(=O)C1OCCC1NC(=O)C1(C)CC(c2cc(F)cc(F)c2)=NO1 (stereo not shown) [Example 1.92] | 93 | 70 | 86 | 60 | 5 | 10 | 75 | 70 | 42 | 56 | 53 | 95 | 38 | 61 | 59 | 97 |  |  |  |  | 
2 | COC(=O)C1C=CC(NC(=O)C2(C)CC(c3cc(F)cc(F)c3)=NO2)C1 (stereo not shown) [Example 1.19] |  |  |  |  |  |  |  |  | 20 | 50 | 20 | 40 |  |  |  |  |  |  |  |  | 
3 | COCCOC(=O)C1C=CC(NC(=O)C2(C(F)(F)F)CC(c3cc(F)cc(C#N)c3)=NO2)C1 (stereo not shown) [Example 1.2] |  |  |  |  |  |  |  |  | 65 | 28 | 25 | 90 | 75 | 22 | 21 | 96 | 78 | 35 | 10 | 45 | 
4 | COC(=O)C1=CC(NC(=O)C2(C)CC(c3cc(F)cc(F)c3)=NO2)CC1 (stereo not shown) [Example 1.63] | 50 | 30 | 100 | 25 | 30 | 0 | 60 | 25 | 40 | 53 | 45 | 85 | 43 | 51 | 45 | 88 |  |  |  |  | 
5 | CN(C)C(=O)SCCOC(=O)C1C=CC(NC(=O)C2(C)CC(c3cc(F)cc(F)c3)=NO2)C1 (stereo not shown) [Example 1.29] |  |  |  |  |  |  |  |  | 25 | 58 | 35 | 60 | 25 | 67 | 50 | 75 | 33 | 20 | 40 | 60 | 
6 | CCOC(=O)C1C=CC(NC(=O)C2(C(F)(F)F)CC(c3ccccc3)=NO2)C1 (stereo not shown) [Example 1.9] |  |  |  |  |  |  |  |  | 22 | 72 | 56 | 78 | 22 | 74 | 63 | 85 | 83 | 25 | 5 | 30 | 
7 | C=CC1(C(=O)NC2COC(C(=O)OC)C2)CC(c2cc(F)cc(F)c2)=NO1 (stereo not shown) [Example 1.70] | 44 | 35 | 53 | 45 | 45 | 40 | 80 | 85 |  |  |  |  |  |  |  |  | 26 | 25 | 70 | 95 | Reduction [%] [1, 10]: 21%; Reduction [Difference] [1, 10]: 20; HER effect + SAF [1, 10]: 75%; HER effect [1, 10]: 95%; HER effect + SAF ([2]; HER 2 g a.i./ha + isoxadifen-ethyl 50 g a.i./ha): 35%; Reduction [%] [2, 11]: 60%; Reduction [Difference] [2, 11]: 53; HER effect ([2]; HER 2 g a.i./ha, 0%=no injury, 100%=complete kill): 88%
8 | C=CCOC(=O)C1CC(NC(=O)C2(C=C)CC(c3cc(F)cc(F)c3)=NO2)CO1 (mixture of isomers) [Example 1.83] |  |  |  |  |  |  |  |  | 28 | 55 | 34 | 62 | 20 | 76 | 65 | 85 |  |  |  |  | 
